Experimental data from patent publication US8057806B2 (priority 2000, dated 2011).

Columns and labels:
[1] = test system: wild-type WSN-UdM virus; assay type: cell-based, influenza A virus
[2] = test system: viral replication; conditions: cited from earlier work

Structure (SMILES): NC12CC3CC(CC(C3)C1)C2 [amantadine]
- effect on virus yield and size of plaques [1]: markedly reduced
- concentrations at which the drug selectively inhibits viral replication [2]: 0.1 to 5 µM
- concentrations of nonspecific action (increase in pH of endosomes) [2]: > 50 μM
